Common to all, as to format: cell-based
Test [1] concerns the target T1, ρ2 GABAC receptor (Homo sapiens, UniProt P28476).
T1 construct: gene GABRR2; human recombinant ρ2 GABAC receptors expressed in Xenopus oocytes
Kind of test: two-electrode voltage clamp in Xenopus oocytes, shift of GABA concentration-response curve. Particulars: read-out: Kd. (In general: In two-electrode clamp one electrode senses voltage and the other passes current.)

For test [2], the target named is T2, α5β2γ2 GABAA receptor (Homo sapiens, UniProt P31644+P47870).
T2 construct: gene GABRA5; α5β2γ2 receptors expressed in Xenopus oocytes; with β2 and γ2 GABAA subunits
T2 sequence (P47870 26-512): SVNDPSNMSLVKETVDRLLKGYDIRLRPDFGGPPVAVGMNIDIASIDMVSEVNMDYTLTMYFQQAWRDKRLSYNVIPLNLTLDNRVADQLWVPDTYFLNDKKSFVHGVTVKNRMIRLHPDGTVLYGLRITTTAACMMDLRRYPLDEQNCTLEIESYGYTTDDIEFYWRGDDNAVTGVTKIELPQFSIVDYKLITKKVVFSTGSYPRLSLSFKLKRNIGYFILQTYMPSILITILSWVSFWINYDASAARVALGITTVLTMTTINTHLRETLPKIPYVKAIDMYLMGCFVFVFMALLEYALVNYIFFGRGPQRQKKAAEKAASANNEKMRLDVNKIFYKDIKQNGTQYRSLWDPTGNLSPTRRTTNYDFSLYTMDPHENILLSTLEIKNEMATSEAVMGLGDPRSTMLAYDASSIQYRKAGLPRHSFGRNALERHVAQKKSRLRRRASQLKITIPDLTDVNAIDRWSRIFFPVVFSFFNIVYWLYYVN
T2 sequence (P18507 40-475, further chain): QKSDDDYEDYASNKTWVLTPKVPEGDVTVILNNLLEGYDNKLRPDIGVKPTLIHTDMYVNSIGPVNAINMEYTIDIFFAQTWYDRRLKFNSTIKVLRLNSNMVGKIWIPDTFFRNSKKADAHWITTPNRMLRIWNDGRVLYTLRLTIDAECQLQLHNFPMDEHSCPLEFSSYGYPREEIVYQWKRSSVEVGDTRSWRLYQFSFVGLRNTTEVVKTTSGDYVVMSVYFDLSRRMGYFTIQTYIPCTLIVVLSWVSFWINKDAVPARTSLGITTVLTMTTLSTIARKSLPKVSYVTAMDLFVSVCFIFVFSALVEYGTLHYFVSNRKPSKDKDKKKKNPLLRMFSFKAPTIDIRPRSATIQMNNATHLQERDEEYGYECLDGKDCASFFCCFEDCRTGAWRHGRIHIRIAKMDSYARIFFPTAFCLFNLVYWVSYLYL
T2 sequence (P31644 32-462): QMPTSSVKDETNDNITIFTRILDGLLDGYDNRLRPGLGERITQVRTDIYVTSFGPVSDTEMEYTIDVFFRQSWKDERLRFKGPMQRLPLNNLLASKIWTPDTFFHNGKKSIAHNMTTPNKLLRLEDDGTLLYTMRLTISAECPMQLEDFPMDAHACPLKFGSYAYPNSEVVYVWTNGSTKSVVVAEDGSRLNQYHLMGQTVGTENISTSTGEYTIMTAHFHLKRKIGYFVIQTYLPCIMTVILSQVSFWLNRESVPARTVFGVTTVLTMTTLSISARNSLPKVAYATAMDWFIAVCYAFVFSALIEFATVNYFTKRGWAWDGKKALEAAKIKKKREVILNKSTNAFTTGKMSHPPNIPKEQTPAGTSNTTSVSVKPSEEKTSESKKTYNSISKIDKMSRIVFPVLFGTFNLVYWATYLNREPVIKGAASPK
Kind of test: two-electrode voltage clamp in Xenopus oocytes, % inhibition of GABA ([…]) current at […].

For test [3], the target named is T1, ρ2 GABAC receptor. The test can be described thus: two-electrode voltage clamp in Xenopus oocytes, agonist dose-response.

This is an account of results in paper PMC8000079, “Targeting GABAC Receptors Improves Post-Stroke Motor Recovery” (Brain Sciences, 2021).

Molecules are shown by their SMILES.

T1 sequence (P28476 21-465): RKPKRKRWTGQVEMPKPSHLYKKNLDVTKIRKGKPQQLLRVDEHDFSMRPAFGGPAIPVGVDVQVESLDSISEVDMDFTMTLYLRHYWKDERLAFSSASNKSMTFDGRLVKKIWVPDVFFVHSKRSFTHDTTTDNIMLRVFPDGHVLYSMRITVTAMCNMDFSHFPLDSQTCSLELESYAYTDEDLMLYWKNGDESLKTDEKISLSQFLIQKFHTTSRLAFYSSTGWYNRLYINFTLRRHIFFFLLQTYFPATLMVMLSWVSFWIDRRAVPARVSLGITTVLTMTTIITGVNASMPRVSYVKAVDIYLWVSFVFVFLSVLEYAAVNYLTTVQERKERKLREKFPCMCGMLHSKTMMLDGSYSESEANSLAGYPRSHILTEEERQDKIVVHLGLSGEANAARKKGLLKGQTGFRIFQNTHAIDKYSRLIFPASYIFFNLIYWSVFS

`CCCCP(=O)(O)C1=CC[C@@H](N)C1` [(R)-4-ACPBPA, (R)-4-amino-cyclopent-1-enyl butylphosphinic acid]: the Kb in test [1] turned out to be 6 µM. In addition, testing at 100 µM in test [2] gave an inhibition of 36 ± 2%.

Regarding `NCCCC(=O)O` [GABA, γ-aminobutyric acid], in test [3], the EC50 is listed as ~ 1 µM.

With `CCCCP(=O)(O)C1=CC[C@H](N)C1` [(S)-4-ACPBPA, (S)-4-amino-cyclopent-1-enyl butylphosphinic acid], the Kb in test [1] turned out to be 10.5 µM. Moreover, the inhibition (as a rule, the drop in the measured response relative to a control, in per cent) at 100 µM in test [2] came to 37 ± 1.5%.
